Data on 20 compounds can be found in patent US20120220577A1, “GLYCINE B ANTAGONISTS” (Merz Pharma GmbH & Co KgaA, priority 2009, published 2012).

The target in series [1] is NMDA receptor glycine B site (Rattus norvegicus, UniProt P35439). Kind of series: Calcium FLIPR studies, rat cortical neurons (NMDA/D-Serine induced intracellular calcium). It counts as cell-based. More on the design: Primary neurons are prepared from cortices of embryonal rats at day 17 of pregnancy; endogenous in cells; host or cells: primary rat cortical neurons (E17, 11-13 DIV). Conditions: rat cortical neurons; stimulation with 30 μM NMDA and 1 μM D-Serine; antagonist pre-incubated 10 min; read-out: NMDA-FLIPR-rCTX-NAM - IC50. Here is the method:
Antagonistic potencies of the test compounds are functionally evaluated using electrophysiological whole cell patch-clamp recordings and/or fluorometric intracellular Ca^2+-imaging (FLIPR) screens.
Sprague-Dawley rat embryos (E 17) are decapitated and neocortices are dissected, trypsinized and carefully triturated. The cell suspension is plated on poly-D-lysine pre-coated 96-well Plates (Greiner, Frickenhausen, Germany) at a cell density of 55.000 cells/well. The neurons are cultivated in Neurobasal media containing B27-Supplement and […] L-Glutamine (Biochrom) at 37° C. in a humidified atmosphere of 5% CO2/95% air. Medium is exchanged completely at day 4 and to 50% on day 7. At the time of experiments neurons are 11-13 days in vitro.
The increase of intracellular calcium after stimulation with 30 μM NMDA and 1 μM D-Serine is measured using the fluorometric imaging plate reader (FLIPR) and the Calcium-4-Kit (both Molecular Devices, Ismaning, Germany). Prior to addition of agonist or antagonist (5 different concentrations, n=5) the medium is aspirated and cells are washed once before loading with 150 μL of loading buffer (1 h at room temperature), consisting of Ca-4 sensitive dye reconstituted in extracellular bath solution, pH 7.3. Subsequently, plates are transferred to FLIPR to detect increases in intracellular calcium after the addition of agonist, measured as relative fluorescence units (RFU). Antagonists are pre-incubated with the cells for 10 min at room temperature before the addition of the agonist and co-agonist.
The fluorescence signal increase after addition of agonist reflects the increase of intracellular calcium. Inconsistencies in the amount of cells per well are normalised by using the spatial uniformity correction of the FLIPR software (Screenworks, Molecular Devices). The mean of replicated temporal data (n=5) is calculated and used for graphical representation. For the evaluation of the antagonistic potency, the calcium changes in response to different concentrations of antagonist are determined using an area under the curve (AUC) calculation. All responses (RFU-values) are determined as percentage of control (=maximum response at 30 μM NMDA and 1 μM D-Serine). IC50 values are calculated according the four parameter logistic equation using GraFit (Erithacus Software).

The target in series [2] is T1, glycine binding pocket of the NMDA receptor (Rattus norvegicus, UniProt P35439).
T1 construct: For isolation of the cell membranes, the cortices are homogenized; from tissue; host or cells: rat cerebral cortex membranes (male Sprague-Dawley)
Kind of series: [3H]MDL-105,519 displacement studies (rat cortical membranes). Conditions: displacement of 2 nM [3H]-MDL-105,519, rat cortical membranes; read-out: NMDA-MDL 105519-r-CTX - IC50. Here is the method: Anaesthetised male Sprague-Dawley rats (200-250 g, Janvier, Le Genest-Isle, France) are decapitated and their brains removed rapidly. […] For isolation of the cell membranes, the cortices are homogenized in 20 volumes of ice-cold 0.32 M sucrose (Sigma-Aldrich, Taufkirchen, Germany) using a glass-Teflon homogenizer. The homogenate is centrifuged at 1000×g for 10 minutes, the pellet is discarded and the supernatant centrifuged at 20,000×g for 20 minutes. The resulting pellet is re-suspended in 20 volumes of distilled water and centrifuged for 20 minutes at 8000×g. The supernatant and the buffy coat are then centrifuged three times (48,000×g for 20 minutes) in the presence of 50 mM Tris-HCl, pH 8.0 (assay buffer). All centrifugation steps are carried out at 4° C. After resuspension in 5 volumes of 50 mM Tris-HCl, pH 7.5, the membrane suspension is frozen rapidly at −80° C. On the day of assay, the membranes are thawed and washed four times by resuspension in 50 mM Tris-HCl, pH 7.5, and centrifugation at 48,000×g for 20 minutes. The final pellet is suspended in assay buffer. […] The final protein concentration used for our studies is 400 μg/ml.
A robotic system designed for binding assays (Tecan Deutschland GmbH, Crailsheim, Germany) is loaded with the membrane solution, solutions for bound control (buffer/DMSO 20%), unlabeled glycine (1 mM) for evaluation of non-specific binding, all compounds to be tested (at 20-fold concentrations), radioligand and respective 96-well plates.
The protein/receptor concentration is held constant whereas the amount of specific bound radioligand is determined using increasing concentrations of ligand.
Firstly, the assay plates are loaded with membrane solution and are shaken at 4° C. The mother plates are then prepared by pipetting the compounds into assay buffer/20% DMSO to obtain the desired final concentrations (dose response curve with five different concentrations, e.g. 10, 3, 1, 0.3, and 0.1 μM). After transferring radioligand into the assay plates, the compounds are added (including the bound and the non-specific binding control). The final DMSO concentration is 1%. The assay plates are incubated and shaken at 4° C. for 1 h, before the mixture is exhausted as rapidly as possible via a vacuum manifold using the Multiscreen HTS glass fibre (type B) filter plates (Millipore, Schwalbach, Germany) under a constant vacuum of 450 mbar. The membranes are washed four times with cold assay buffer ([…]). 50 μL of Ultima Gold scintillation cocktail (PerkinElmer, Rodgau-Jügesheim, Germany) is added to the wet filter plates and incubated at room temperature overnight before counting the disintegration per minutes using a liquid scintillation counter (MicroBeta, PerkinElmer, Rodgau-Jügesheim, Germany).
The residual radioactivity after displacement of the test compound (n=5) is then corrected with respect to the set controls.

A word on the melting point: it is the temperature, or range, at which the solid turns liquid. Usually IC50 stands for the concentration that gives 50% inhibition.

Consider `CN1CCc2sc(NC(=O)COc3cc(C(=O)O)cc4cc(Cl)cc(Cl)c34)nc2C1` [Example 132, 5,7-Dichloro-4-[(5-methyl-4,5,6,7-tetrahydro-thiazolo[4,5-c]pyridin-2-ylcarbamoyl)-methoxy]-naphthalene-2-carboxylic acid], for which the melting point lay in the range of 242 to 243 °C.

On to `O=C(COc1cc(C(=O)O)cc2cc(Cl)cc(Cl)c12)NCc1ccc(Cc2nnn[nH]2)cc1` [Example 120, 5,7-Dichloro-4-{[4-(1H-tetrazol-5-ylmethyl)-benzylcarbamoyl]-methoxy}-naphthalene-2-carboxylic acid], for which the melting point was in the range of 247 to 248 °C.

With `O=C(COc1ccccc1NC(=O)COc1cc(C(=O)O)cc2cc(Cl)cc(Cl)c12)NCCO` [Example 134, 5,7-Dichloro-4-({2-[(2-hydroxy-ethylcarbamoyl)-methoxy]-phenylcarbamoyl}-methoxy)-naphthalene-2-carboxylic acid], the melting point was in the range of 217 to 218 °C.

With `NC(=O)c1[nH]cnc1NC(=O)COc1cc(C(=O)O)cc2cc(Cl)cc(Cl)c12` [Example 136, 4-[(5-Carbamoyl-1H-imidazol-4-ylcarbamoyl)-methoxy]-5,7-dichloro-naphthalene-2-carboxylic acid], the melting point was > 250 °C.

Compound `O=C(COc1cc(C(=O)O)cc2cc(Cl)cc(Cl)c12)NCc1ccccc1Cc1nnn[nH]1` [Example 118, 5,7-Dichloro-4-{[2-(1H-tetrazol-5-ylmethyl)-benzylcarbamoyl]-methoxy}-naphthalene-2-carboxylic acid] gave a melting point of 239 to 240 °C.

`CN(C(=O)COc1cc(C(=O)O)cc2cc(Cl)cc(Cl)c12)c1cccc(C(=O)O)c1` [Example 31, 4-{[(3-Carboxyphenyl)-methylcarbamoyl]-methoxy}-5,7-dichloronaphthalene-2-carboxylic acid]: the IC50 in series [1] was found to be 4.75 µM; in series [2], 1.09 µM.

Regarding `O=C(O)c1cc(OCC(=O)N2c3ccccc3CC2c2nnn[nH]2)c2c(Cl)cc(Cl)cc2c1` (centres unmarked) [Example 99, 5,7-Dichloro-4-{2-oxo-2-[2-(1H-tetrazol-5-yl)-2,3-dihydro-indol-1-yl]-ethoxy}-naphthalene-2-carboxylic acid], the results for the IC50 in series [1] and in series [2] were 5.95 µM and 0.909 µM, respectively.

Take `COc1ccccc1N1CCC(Oc2cc(C(=O)O)cc3cc(Cl)cc(Cl)c23)C1=O` (centres unmarked) [Example 75, 5,7-Dichloro-4-[1-(2-methoxy-phenyl)-2-oxo-pyrrolidin-3-yloxy]-naphthalene-2-carboxylic acid]: the IC50 was found to be 4.96 µM in series [1] and 1.27 µM in series [2].

With `O=C(COc1cc(C(=O)O)cc2cc(Cl)cc(Cl)c12)Nc1ccc(OCc2nnn[nH]2)cc1` [Example 88, 5,7-Dichloro-4-{[4-(1H-tetrazol-5-ylmethoxy)-phenylcarbamoyl]-methoxy}-naphthalene-2-carboxylic acid], the IC50 turned out to be 3.8 µM in series [1] and 1.54 µM in series [2].

For `O=C(COc1cc(C(=O)O)cc2cc(Cl)cc(Cl)c12)Nc1cccc(Cc2nnn[nH]2)c1` [Example 90, 5,7-Dichloro-4-{[3-(1H-tetrazol-5-ylmethyl)-phenylcarbamoyl]-methoxy}naphthalene-2-carboxylic acid], the values for the IC50 in series [1] and in series [2] were 2.68 µM and 0.55 µM, respectively.

For `O=C(O)Cc1ccc(NC(=O)COc2cc(C(=O)O)cc3cc(Cl)cc(Cl)c23)cn1` [Example 46, 4-[(6-Carboxymethyl-pyridin-3-ylcarbamoyl)-methoxy]-5,7-dichloro-naphthalene-2-carboxylic acid], the figures for the IC50 in series [1] and in series [2] were 9.41 µM and 1.23 µM, respectively.

Consider `O=C(O)c1cc(OC(C(=O)O)c2ccccc2)c2c(Cl)cc(Cl)cc2c1` (centres unmarked) [Example 32, 4-(Carboxyphenylmethoxy)-5,7-dichloronaphthalene-2-carboxylic acid], for which the results for the IC50 in series [1] and in series [2] were 6.49 µM and 1.51 µM, respectively.

`O=C(O)COc1cccc(NC(=O)COc2cc(C(=O)O)cc3cc(Cl)cc(Cl)c23)c1` [Example 2, 4-[(3-Carboxymethoxyphenylcarbamoyl)-methoxy]-5,7-dichloronaphthalene-2-carboxylic acid]: the results for the IC50 in series [1] and in series [2] were 3.17 µM and 0.414 µM, respectively.

Turning to `CC(C)(Oc1ccccc1NC(=O)COc1cc(C(=O)O)cc2cc(Cl)cc(Cl)c12)C(=O)O` [Example 81, 4-{[2-(1-Carboxy-1-methyl-ethoxy)-phenylcarbamoyl]-methoxy}-5,7-dichloro-naphthalene-2-carboxylic acid], the 50% inhibitory concentration (IC50) in series [1] turned out to be 11.3 µM; in series [2], 1.19 µM.

As to `O=C(COc1cc(C(=O)O)cc2cc(Cl)cc(Cl)c12)Nc1nnn[nH]1` [Example 64, 5,7-Dichloro-4-[(1H-tetrazol-5-ylcarbamoyl)-methoxy]-naphthalene-2-carboxylic acid], the IC50 in series [1] came out at 9.28 µM; in series [2], 1.26 µM.

In the case of `O=C(COc1cc(C(=O)O)cc2cc(Cl)cc(Cl)c12)NCc1ccncc1` [Example 105, 5,7-Dichloro-4-{[(pyridin-4-ylmethyl)-carbamoyl]-methoxy}-naphthalene-2-carboxylic acid], the IC50 in series [1] turned out to be 7.09 µM; in series [2], 1.03 µM.

Turning to `O=C(COc1cc(C(=O)O)cc2cc(Cl)cc(Cl)c12)NC(C(=O)O)c1ccccc1` (centres unmarked) [Example 27, 4-{[(Carboxyphenylmethyl)-carbamoyl]-methoxy}-5,7-dichloronaphthalene-2-carboxylic acid], the figures for the IC50 in series [1] and in series [2] were 3.5 µM and 0.79 µM, respectively.

As for `NC(=O)COc1ccccc1NC(=O)COc1cc(C(=O)O)cc2cc(Cl)cc(Cl)c12` [Example 95, 4-[(2-Carbamoylmethoxy-phenylcarbamoyl)-methoxy]-5,7-dichloro-naphthalene-2-carboxylic acid], the IC50 in series [1] was 7.17 µM; in series [2], 0.641 µM.

In the case of `CNC(=O)COc1ccccc1NC(=O)COc1cc(C(=O)O)cc2cc(Cl)cc(Cl)c12` [Example 91, 5,7-Dichloro-4-[(2-methylcarbamoylmethoxy-phenylcarbamoyl)-methoxy]-naphthalene-2-carboxylic acid], the IC50 is 10.8 µM in series [1] and 1.27 µM in series [2].

In the case of `O=C(COc1cc(C(=O)O)cc2cc(Cl)cc(Cl)c12)NCc1cccc(-c2nnn[nH]2)c1` [Example 107, 5,7-Dichloro-4-{[3-(1H-tetrazol-5-yl)-benzylcarbamoyl]-methoxy}-naphthalene-2-carboxylic acid], the IC50 amounted to 1.44 µM in series [1] and 0.139 µM in series [2].
